Test results from patent EP1191024A1, “Thiadiazines and their use as inhibitors of metalloproteinases” (Tschesche, Harald, priority 2000, dated 2002).

Each compound was assayed against T1, ΔTM-MMP-14 (Homo sapiens, UniProt P50281) (assay: MMP microfluorometric profiling assay (fluorogenic Mca-peptide substrate)). Details: not given.
T1 construct: The ectodomain of MMP-14 was expressed in Pichia Pastoris; made in house; host or cells: Pichia pastoris
Type: biochemical

Row | SMILES | IC50 [nM]
1 | C[C@H](NS(=O)(=O)c1cccnc1)C(=O)NC1=NN=C(c2ccc(Cl)cc2)CS1 [Example 29, (2S)-N-[5-(4-Chlorophenyl)-6H-1,3,4-thiadiazin-2-yl]-2-[(3-pyridylsulfonyl)-amino]propanamide] | 430
2 | O=C1C[C@@H](C(=O)NC2=NN=C(c3ccc(Cl)cc3)CS2)NC(=O)N1 [Example 30, (4S)-N-[5-(4-Chlorophenyl)-6H-1,3,4-thiadiazin-2-yl]-2,6-dioxohexahydro-4-pyrimidinecarboxamide] | 692
3 | C[C@H](NS(=O)(=O)c1ccccc1)C(=O)NC1=NN=C(c2ccc(C(F)(F)F)cc2)CS1 [Example 4, (2S)-2-[(Phenylsulfonyl)amino]-N-{5-[4-(trifluormethyl)phenyl]-6H-1,3,4-thiadiazin-2-yl}propanamide] | 708
4 | C[C@H](NS(=O)(=O)c1ccccc1)C(=O)NC1=NN=C(c2ccc(Cl)s2)CS1 [Example 10, (2S)-N-[5-(5-Chloro-2-thienyl)-6H-1,3,4-thiadiazin-2-yl]-2-[(phenylsulfonyl)-amino]propanamide] | 357
5 | C[C@H](NS(=O)(=O)c1ccccc1)C(=O)NC1=NN=C(c2ccc(C#N)cc2)CS1 [Example 3, (2S)-N-[5-(4-Cyanophenyl)-6H-1,3,4-thiadiazin-2-yl]-2-[(phenylsulfonyl)amino]-propanamide] | 709
6 | CC(C)(C)c1ccc(S(=O)(=O)NCC(=O)NC2=NN=C(c3ccc(Cl)cc3Cl)CS2)cc1 [Example 18, 2-{[(4-tert-Butylphenyl)sulfonyl]amino}-N-[5-(2,4-dichlorophenyl)-6H-1,3,4-thiadiazin-2-yl]acetamide] | 887

Other lines, results leading:

Row | IC50 [nM] | SMILES
7 | 596 | C[C@@H](NS(=O)(=O)c1ccccc1)C(=O)NC1=NN=C(c2ccc(F)cc2)CS1 [Example 14, (2R)-N-[5-(4-Fluorophenyl)-6H-1,3,4-thiadiazin-2-yl]-2-[(phenylsulfonyl)amino]-propanamide]
8 | 593 | CC(C)[C@@H](NS(=O)(=O)c1ccccc1)C(=O)NC1=NN=C(c2ccc(Cl)cc2)CS1 [Example 2, (2R)-N-[5-(4-Chlorophenyl)-6H-1,3,4-thiadiazin-2-yl]-3-methyl-2-[(phenylsulfonyl)amino]butanamide]
9 | 610 | C[C@@H](NS(=O)(=O)c1ccccc1)C(=O)NC1=NN=C(c2ccc(C#N)cc2)CS1 [Example 1, (2R)-N-[5-(4-Cyanophenyl)-6H-1,3,4-thiadiazine-2-yl]-2-[(phenylsulfonyl)amino]-propanamide]

Same assay, conditions: ΔTM-MMP-14, @ 15 (µM)

Row | percent inhibition [%^a)@ 15] | SMILES
10 | 63 | O=C(CC1NC(=O)NC1=O)NC1=NN=C(c2ccc(N3CCCC3)cc2)CS1 (stereo not shown) [Example 26, 2-(2,5-Dioxo-4-imidazolidinyl)-N-{5-[4-(1-pyrrolidinyl)phenyl]-6H-1,3,4-thiadiazin-2-yl}acetamide]
